Reference: ChEMBL document CHEMBL1157109, “Differentiating and apoptotic dose-dependent effects in (-)-alpha-bisabolol-treated human endothelial cells” (2010)
Active and inactive are the calls of the source. The calls are words filed in the database; no cut-off is given here.

What was measured:
HUVEC [1] = assay: Induction of apoptosis in HUVEC assessed as procaspase3 activation at 0.25 uM after 4 hrs by Western blot analysis; type: functional, cell-based; conditions: Homo sapiens
HUVEC [2] = assay: Cytotoxicity against HUVEC at 0.5 uM after 72 hrs by trypan blue dye exclusion test relative to control; type: functional, Homo sapiens
HUVEC [3] = assay: Cytotoxicity against HUVEC assessed as change in cell number at 25 uM after 72 hrs by trypan blue dye exclusion test; type: functional, cell-based; conditions: Homo sapiens
HUVEC [4] = assay: Induction of apoptosis in HUVEC assessed as effect on bax protein level after 1 hr by Western blot analysis; type: functional, cell-based; conditions: Homo sapiens
HUVEC [5] = assay: Induction of apoptosis in HUVEC assessed as cytochrome C release at 5 uM after 24 hrs by Western blot analysis; type: functional, cell-based; conditions: Homo sapiens
HUVEC [6] = assay: Angiogenic activity against HUVEC assessed as organization of cells in a capillary like structure at 0.1 uM after 4 hrs; type: functional, cell-based; conditions: Homo sapiens
HUVEC [7] = assay: Induction of apoptosis in HUVEC assessed as down-regulation of Bcl2 protein level at 5 uM after 0.5 hr by Western blot analysis; type: functional, cell-based; conditions: Homo sapiens
HUVEC [8] = assay: Cytotoxicity against HUVEC at 0.25 uM after 72 hrs by trypan blue dye exclusion test relative to control; type: functional, Homo sapiens
HUVEC [9] = assay: Cytotoxicity against HUVEC at 5 uM after 6 hrs by Trypan blue dye exclusion test; type: functional, Homo sapiens
HUVEC [10] = assay: Induction of apoptosis in HUVEC assessed as procaspase3 activation at 5 uM after 4 hrs by Western blot analysis; type: functional, cell-based; conditions: Homo sapiens
HUVEC [11] = assay: Antiangiogenic activity against HUVEC assessed as inhibition of capillary tube organization at 0.5 uM after 4 hrs; type: functional, cell-based; conditions: Homo sapiens
HUVEC [12] = assay: Induction of apoptosis in HUVEC assessed as cytochrome C release at 5 uM after 4 hrs by Western blot analysis; type: functional, cell-based; conditions: Homo sapiens
HUVEC [13] = assay: Cytotoxicity against HUVEC at 0.35 uM after 72 hrs by trypan blue dye exclusion test relative to control; type: functional, Homo sapiens
HUVEC [14] = assay: Angiogenic activity against HUVEC assessed as organization of cells in a capillary like structure at 0.25 uM after 4 hrs; type: functional, cell-based; conditions: Homo sapiens
HUVEC [15] = assay: Induction of apoptosis in HUVEC assessed as procaspase3 activation at 5 uM after 24 hrs by Western blot analysis; type: functional, cell-based; conditions: Homo sapiens
HUVEC [16] = assay: Antiangiogenic activity in HUVEC assessed as decrease in cell migration at 0.25 uM after 4 hrs in the presence of FGF2 relative to control; type: functional, cell-based; conditions: Homo sapiens
HUVEC [17] = assay: Cytotoxicity against HUVEC at 0.15 uM after 72 hrs by trypan blue dye exclusion test relative to control; type: functional, Homo sapiens

For `CC(C)=CCC[C@](C)(O)[C@@H]1CC=C(C)CC1` [LEVOMENOL], the Activity (HUVEC [1]) was “inactive”, the Activity (HUVEC [2]) was 90% and the Activity (HUVEC [3]) was “inactive”. The Activity (HUVEC [4]) was “inactive”, the Activity (HUVEC [5]) was “Active” and the Activity (HUVEC [6]) was “Active”. For the same compound, the Activity (HUVEC [7]) was “Active”, the Activity (HUVEC [8]) was 78% and the Activity (HUVEC [9]) was greater than 60%. For the same compound, the Activity (HUVEC [10]) was “Active”, the Activity (HUVEC [11]) was “Active” and the Activity (HUVEC [12]) was “Active”. The Activity (HUVEC [13]) was 82%, the Activity (HUVEC [14]) was “Active” and the Activity (HUVEC [15]) was “Active”. The Activity (HUVEC [16]) was “Active” and the Activity (HUVEC [17]) was 65%.
